The record followed here is patent US7342012B2, “Inhibitors of αLβ2 mediated cell adhesion” (Mitsubishi Tanabe Pharma Corporation, priority 1999, dated 2008).

The compound `N#Cc1ccc(C[C@]23C[C@@H](O)CN2C(=O)N(c2cc(Cl)nc(Cl)c2)C3=O)cc1` [Example 60, (5R,7R)-5-(4-Cyanobenzyl)-3-(2,6-dichloro-4-pyridyl)-7-hydroxy-1,3-diazabicyclo[3.3.0]octane-2,4-dione] gave a melting point of 97.6 °C.

`O=C1N(c2cc(Cl)cc(Cl)c2)C(=O)[C@@]2(Cc3ccc(Br)cc3)C[C@H](O)CN12` [Example 61, (5R,7S)-5-(4-Bromobenzyl)-3-(3,5-dichlorophenyl)-7-hydroxy-1,3-diazabicyclo[3.3.0]octane-2,4-dione] registered a melting point of 60.4 °C.

`[N-]=[N+]=N[C@@H]1CN2C(=O)N(c3cc(Cl)nc(Cl)c3)C(=O)[C@@]2(Cc2ccc(OC(F)(F)F)cc2)C1` [Example 62, (5R,7S)-5-[4-(Trifluoromethoxy)benzyl]-3-(2,6-dichloro-4-pyridyl)-7-azido-1,3-diazabicyclo[3.3.0]octane-2,4-dione] displayed a melting point of 139.9 °C.

`N[C@@H]1CN2C(=O)N(c3cc(Cl)nc(Cl)c3)C(=O)[C@@]2(Cc2ccc(OC(F)(F)F)cc2)C1` [Example 63, (5R,7S)-5-[4-(Trifluoromethoxy)benzyl]-3-(2,6-dichloro-4-pyridyl)-7-amino-1,3-diazabicyclo[3.3.0]octane-2,4-dione] displayed a melting point of 150.6 °C.

For the compound `CC(=O)N[C@@H]1CN2C(=O)N(c3cc(Cl)nc(Cl)c3)C(=O)[C@@]2(Cc2ccc(OC(F)(F)F)cc2)C1` [Example 64, (5R,7S)-5-[4-(Trifluoromethoxy)benzyl]-3-(2,6-dichloro-4-pyridyl)-7-acetamido-1,3-diazabicyclo[3.3.0]octane-2,4-dione], the melting point is 126.9 °C.

Compound `O=C(O)CCC(=O)N[C@@H]1CN2C(=O)N(c3cc(Cl)nc(Cl)c3)C(=O)[C@@]2(Cc2ccc(OC(F)(F)F)cc2)C1` [Example 66, (5R,7S)-5-[4-(Trifluoromethoxy)benzyl]-3-(2,6-dichloro-4-pyridyl)-7-(3-carboxypropanoylamino)-1,3-diazabicyclo[3.3.0]octane-2,4-dione] yielded a melting point of 101.9 °C.

With `O=C(N[C@@H]1CN2C(=O)N(c3cc(Cl)nc(Cl)c3)C(=O)[C@@]2(Cc2ccc(OC(F)(F)F)cc2)C1)c1ccncc1` [Example 67, (5R,7S)-5-[4-(Trifluoromethoxy)benzyl]-3-(2,6-dichloro-4-pyridyl)-7-(isonicotinoylamino)-1,3-diazabicyclo[3.3.0]octane-2,4-dione], the melting point was 148 °C.

As to `CN1CCN(C(=O)CCC(=O)N[C@@H]2CN3C(=O)N(c4cc(Cl)nc(Cl)c4)C(=O)[C@@]3(Cc3ccc(OC(F)(F)F)cc3)C2)CC1` [Example 69, (5R,7S)-5-[4-(Trifluoromethoxy)benzyl]-3-(2,6-dichloro-4-pyridyl)-7-[3-(4-methyl-1-piperazinylcarbonyl)propanoylamino]-1,3-diazabicyclo[3.3.0]octane-2,4-dione], the melting point was 70 °C.

Compound `O=C1CN2C(=O)N(c3cc(Cl)nc(Cl)c3)C(=O)[C@@]2(Cc2ccc(OC(F)(F)F)cc2)C1` [Example 70, (5R)-5-[4-(Trifluoromethoxy)benzyl]-3-(2,6-dichloro-4-pyridyl)-7-oxo-1,3-diazabicyclo[3.3.0]octane-2,4-dione] returned a melting point of 166 °C.

In turn, `CC(C)(C)OC(=O)c1ccc(C(=O)N[C@H]2CN3C(=O)N(c4cc(Cl)cc(Cl)c4)C(=O)[C@@]3(Cc3ccc(Br)cc3)C2)cc1` [Example 80, (5R, 7R)-5-(4-Bromobenzyl)-3-(3,5-dichlorophenyl)-7-(4-t-butoxycarbonylbenzoylamino)-1,3-diazabicyclo[3.3.0]octane-2,4-dione] registered a melting point of 112 °C.

`O=C1N(c2cc(Cl)cc(Cl)c2)C(=O)C2(Cc3ccc(Br)cc3)C[C@@H](c3ccccc3)CN12` (stereo partly drawn) [Example 83, (7S)-5-(4-Bromobenzyl)-3-(3,5-dichlorophenyl)-7-phenyl-1,3-diazabicyclo[3.3.0]octane-2,4-dione]: the melting point turned out to be 123.5 °C.

On to `O=C1N(c2cc(Cl)nc(Cl)c2)C(=O)C2(Cc3ccc(Br)cc3)CCCNN12` (stereo not drawn) [Example 100, 6-(4-Bromobenzyl)-8-(2,6-dichloro-4-pyridyl)-1,2,8-triazabicyclo[4.3.0] nonan-7,9-dione], for which the melting point was 190 °C (dec.).

The compound `CC(=O)N1CCCC2(Cc3ccc(Br)cc3)C(=O)N(c3cc(Cl)nc(Cl)c3)C(=O)N12` (stereo not drawn) [Example 101, 6-(4-Bromobenzyl)-8-(2,6-dichloro-4-pyridyl)-2-acetyl-1,2,8-triazabicyclo[4.3.0]nonane-7,9-dione] had a melting point of 91 °C.

On to `COC(=O)N1CCCC2(Cc3ccc(Br)cc3)C(=O)N(c3cc(Cl)nc(Cl)c3)C(=O)N12` (stereo not drawn) [Example 102, 6-(4-Bromobenzyl)-8-(2,6-dichloro-4-pyridyl)-2-methoxycarbonyl-1,2,8-triazabicyclo[4.3.0]nonane-7,9-dione], for which the melting point came out at 81 °C.

In turn, `COC(=O)CCN1CCCC2(Cc3ccc(Br)cc3)C(=O)N(c3cc(Cl)nc(Cl)c3)C(=O)N12` (stereo not drawn) [Example 103, 6-(4-Bromobenzyl)-8-(2,6-dichloro-4-pyridyl)-2-[2-(methoxycarbonyl)ethyl]-1,2,8-triazabicyclo[4.3.0]nonane-7,9-dione] registered a melting point of 157 °C.

The compound `N#Cc1ccc(CC23CCCN2C(=O)N(Cc2cc(Cl)cc(Cl)c2)C3=O)cc1` (stereo not drawn) [Example 106, 5-(4-Cyanobenzyl)-3-(3,5-dichlorobenzyl)-1,3-diazabicyclo[3.3.0]octane-2,4-dione] came in with a melting point of 124 °C.

In the case of `N#Cc1ccc(CC23CCCN2C(=O)N(CCc2cccc(Cl)c2)C3=O)cc1` (stereo not drawn) [Example 107, 5-(4-Cyanobenzyl)-3-[2-(3-chlorophenyl)ethyl]-1,3-diazabicyclo[3.3.0]octane-2,4-dione], the melting point is 148 °C.

In turn, `N#Cc1ccc(CC23CCCN2C(=O)N(Cc2ccncc2)C3=O)cc1` (stereo not drawn) [Example 108, 5-(4-Cyanobenzyl)-3-(4-pyridylmethyl)-1,3-diazabicyclo[3.3.0]octane-2,4-dione] showed a melting point of 154 °C.

`O=C(c1ccc(Cl)c(Cl)c1)N1C(=O)N2CCCC2(Cc2ccc(Br)cc2)C1=O` (stereo not drawn) [Example 109, 5-(4-Bromobenzyl)-3-(3,4-dichlorobenzoyl)-1,3-diazabicyclo[3.3.0]octane-2,4-dione] returned a melting point of 158 °C.

On to `O=C1N(c2cc(Cl)cc(Cl)c2)C(=O)C2(Cc3ccc(Br)cc3)CC(F)(F)CN12` (stereo not drawn) [Example 110, 5-(4-Bromobenzyl)-3-(3,5-dichlorophenyl)-7,7-difluoro-1,3-diazabicyclo[3.3.0]octane-2,4-dione], for which the melting point was 160.3 °C.

The compound `N#Cc1ccc(C(=O)C23CCCN2C(=O)N(c2cc(Cl)cc(Cl)c2)C3=O)cc1` (stereo not drawn) [Example 112, 5-(4-Cyanobenzoyl)-3-(3,5-dichlorophenyl)-1,3-diazabicyclo[3.3.0]octane-2,4-dione] gave a melting point of 72.1 °C.

For `N#Cc1ccc(C(F)(F)C23CCCN2C(=O)N(c2cc(Cl)cc(Cl)c2)C3=O)cc1` (stereo not drawn) [Example 113, 5-(4-Cyano-α,α-difluorobenzyl)-3-(3,5-dichlorophenyl)-1,3-diazabicyclo[3.3.0]octane-2,4-dione], the melting point turned out to be 66 °C.

For the compound `O=C1N(c2cc(Cl)cc(Cl)c2)C(=O)C2(Cc3ccc(-c4ccc([N+](=O)[O-])cc4)cc3)CCCN12` (stereo not drawn) [Example 114, 5-[4-(4-Nitrophenyl)benzyl]-3-(3,5-dichlorophenyl)-1,3-diazabicyclo[3.3.0]octane-2,4-dione], the melting point lay within 72 to 73 °C.

With `Nc1ccc(-c2ccc(CC34CCCN3C(=O)N(c3cc(Cl)cc(Cl)c3)C4=O)cc2)cc1` (stereo not drawn) [Example 115, 5-[4-(4-Aminophenyl)benzyl]-3-(3,5-dichlorophenyl)-1,3-diazabicyclo[3.3.0]octane-2,4-dione], the melting point was 278 °C (dec.).

Turning to `CC(=O)Nc1ccc(-c2ccc(CC34CCCN3C(=O)N(c3cc(Cl)cc(Cl)c3)C4=O)cc2)cc1` (stereo not drawn) [Example 116, 5-[4-(4-Acetylaminophenyl)benzyl]-3-(3,5-dichlorophenyl)-1,3-diazabicyclo[3.3.0]octane-2,4-dione], the melting point was determined as 123.9 °C.

Take `CC(=O)Nc1cccc(-c2ccc(CC34CCCN3C(=O)N(c3cc(Cl)cc(Cl)c3)C4=O)cc2)c1` (stereo not drawn) [Example 119]: the melting point was 98 °C.

With `O=C(Nc1ccccc1)Nc1cccc(-c2ccc(CC34CCCN3C(=O)N(c3cc(Cl)cc(Cl)c3)C4=O)cc2)c1` (stereo not drawn) [Example 126, 5-[4-[3-(Phenylureido)phenyl]benzyl]-3-(3,5-dichlorophenyl)-1,3-diazabicyclo[3.3.0]octane-2,4-dione], the melting point is 150.2 °C.

With `O=C1CCCN1c1cccc(-c2ccc(CC34CCCN3C(=O)N(c3cc(Cl)cc(Cl)c3)C4=O)cc2)c1` (stereo not drawn) [Example 127, 5-[4-[3-(2-oxo-1-pyrrolidinyl)phenyl]benzyl]-3-(3,5-dichlorophenyl)-1,3-diazabicyclo[3.3.0]octane-2,4-dione], the melting point was determined as 86.5 °C.

`N#Cc1ccc(CC23CCCN2C(=O)N(c2cc(Cl)nc(Cl)c2)C3=O)cc1` (stereo not drawn) [Example 130, 5-(4-Cyanobenzyl)-3-(2,6-dichloro-4-pyridyl)-1,3-diazabicyclo[3.3.0]octane-2,4-dione]: the melting point was determined as 96 °C.

`N#Cc1ccc(CC23CCCN2C(=O)N(c2cc(Cl)c(N)c(Cl)c2)C3=O)cc1` (stereo not drawn) [Example 132, 5-(4-Cyanobenzyl)-3-(3,5-dichloro-4-aminophenyl)-1,3-diazabicyclo[3.3.0]octane-2,4-dione] registered a melting point of 103 °C.

Take `O=C1N(c2cc(Cl)c(OCc3ccccc3)c(Cl)c2)C(=O)C2(Cc3ccc(Br)cc3)CCCN12` (stereo not drawn) [Example 138, 5-(4-Bromobenzyl)-3-[3,5-dichloro-4-(benzyloxy)phenyl]-1,3-diazabicyclo[3.3.0]octane-2,4-dione]: the melting point turned out to be 62 °C.

Compound `COc1c(Cl)cc(N2C(=O)N3CCCC3(Cc3ccc(C#N)cc3)C2=O)cc1Cl` (stereo not drawn) [Example 139, 5-(4-Cyanobenzyl)-3-(3,5-dichloro-4-methoxyphenyl)-1,3-diazabicyclo[3.3.0]octane-2,4-dione] displayed a melting point of 95.1 °C.

For `COC(=O)c1ccc(CC23CCCN2C(=O)N(c2cc(Cl)c(O)c(Cl)c2)C3=O)cc1` (stereo not drawn) [Example 142, 5-(4-Methoxycarbonylbenzyl)-3-(3,5-dichloro-4-hydroxyphenyl)-1,3-diazabicyclo[3.3.0]octane-2,4-dione], the melting point was 105.3 °C.
